# Columns and labels:
# [1] = system: adiponectin mRNA in 3T3-L1; assay: adiponectin mRNA expression in differentiating 3T3-L1 preadipocytes (Light Cycler, ratio to 36B4); assay type: cell-based; settings: for Adiponectin mRNA expression amount (ratio to 36B4): 3T3-L1, 7 days after differentiation induction, non-treatment control = 100, average ± standard error
# Protocol: (§1) (Differentiation Induction of Preadipocyte)
# (§2) 1. Differentiation Induction Medium (0.25 μM DEX, 0.5 mM MIX, 10 μg/ml insulin/10% FBS/DMEM)
# (§3) 55 ml of FBS (fetal bovine serum (available from GIBCO)) was added to 500 ml of DMEM (available from SIGMA) so as to prepare 10% FBS/DMEM. To this 10% FBS/DMEM, 138.75 μl of 1 mM DEX (dexamethasone)/DMSO (available from Nacalai Tesque, Inc.) and 555 μl of 10 mg/ml insulin/PBS (available from SIGMA) were added. Note here that the insulin/PBS was obtained by adding 1 N HCl to PBS in advance so as to make the solution acidic enough to allow insulin dissolution and then dissolving insulin. MIX (3-isobutyl-1-methylxanthine) (available from Nacalai Tesque, Inc.) was added to a necessary amount of the above-described medium immediately before use in such a manner as to achieve 0.5 mM concentration, thereby preparing a differentiation induction medium. Since MIX was very difficult to dissolve, it first was dissolved in a small amount of 99.5% ethanol and then added to 10% FBS/DMEM.
# 2. Differentiation Promotion Medium (5 μg/ml Insulin/10% FBS/DMEM)
# A differentiation promotion medium was prepared by adding 277.5 μl of 10 mg/ml insulin/PBS to 555 ml of 10% FBS/DMEM.
# Next, cultured preadipocytes 3T3-L1 were thawed, inoculated in a 100 mm dish and cultured until the 3T3-L1 cells reached about 80% confluence. A single dish of 3T3-L1 that had reached about 80% confluence was subcultured to a single 6-well plate and further cultured until the 3T3-L1 cells reached confluence in the 6-well plate, and then the medium was replaced with the differentiation induction medium, followed by differentiation induction. 48 hours later, the medium was replaced with the differentiation promotion medium, and thereafter, the medium was replaced with the differentiation promotion medium every two days. 7 days after the initiation of the differentiation induction, mRNA was extracted using a Sepasol-RNA I Super (trade name; available from Nacalai Tesque, Inc.), and the mRNA expression amounts of 36B4, aP2 and adiponectin, which were indicators of an early period of adipocyte differentiation, were measured using a Light Cycler™.
# (§4) The medium was removed from the above-described Swell plate, 1 ml of Sepasol-RNA I Super (available from Nacalai Tesque, Inc.) was added to each well, and pipetting was repeated several times so as to disperse the cells. […] The resultant precipitate (total RNA) was dried and then dissolved in 20 μl of nuclease free water, and the concentration of mRNA was measured using Nanoprop (available from SCRUM Inc.).
# (§5) The extracted and measured mRNA solution was adjusted to have an mRNA concentration of 1 μg/μl. […]
# [2] = biological target: T1, human PPARγ ligand-binding domain (Homo sapiens, UniProt P37231); assay: PPARγ ligand activity, GAL4-hPPARγ luciferase reporter assay in CV-1 cells; assay type: cell-based; settings: for PPARγ ligand activity: luciferase activity relative to non-treatment control (DMSO) = 100, average ± standard error, n=4
# T1 construct: expressed in transfected cells; host or cells: CV-1 cells (African green monkey kidney)
# T1 sequence (P37231 204-505): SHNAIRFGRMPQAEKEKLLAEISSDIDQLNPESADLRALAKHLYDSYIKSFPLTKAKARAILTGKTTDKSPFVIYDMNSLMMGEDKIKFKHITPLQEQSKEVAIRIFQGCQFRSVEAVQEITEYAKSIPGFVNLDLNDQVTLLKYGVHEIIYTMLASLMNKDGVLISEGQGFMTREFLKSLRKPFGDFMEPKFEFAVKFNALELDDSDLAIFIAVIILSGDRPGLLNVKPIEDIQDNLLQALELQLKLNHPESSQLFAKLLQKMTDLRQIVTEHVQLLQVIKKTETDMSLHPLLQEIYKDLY
# Protocol: First, CV-1 cells (cultured cells derived from kidneys of male African green monkeys) were inoculated on 24-well culture plates so as to be […] and cultured at 37° C. in 5% CO2 for 24 hours. As a medium, DMEM (Dulbecco's Modified Eagle Medium; available from GIBCO) containing 10% FBS (fetal bovine serum) and a 10 mg/ml penicillin streptomycin solution was used. Next, using the Lipofectamine system (Invitrogen Corporation), pM-hPPARγ and p4×UASg-tk-luc were transfected into the cultured CV-1 cells. The above-noted pM-hPPARγ was a vector for expressing fusion protein containing residues 1-147 of GAL4 binding domain and residues 204-505 of human PPARγ ligand-binding domain, and the above-noted p4×UASg-tk-luc was a reporter plasmid containing four copies of an upstream activating sequence (UAS) for GAL4 binding domain and a thymidine kinase gene promoter upstream of a luciferase gene. After the transfection, the cells were cultured for about 24 hours, and then, the media for the cells were changed to media containing nobiletin at respective concentrations (0.1, 1.0, and 50 μM) or media for non-treatment control, followed by an additional 24 hour culture. The above-noted media containing nobiletin were prepared by adding nobiletin dissolved in dimethyl sulfoxide (DMSO) to the media, whereas the media for non-treatment control were prepared by adding only DMSO to the media. After the culture, the cells were lysed and the measurement of luciferase activity was performed using a Dual-Luciferase
# Reporter Gene Assay system (available from Promega Corporation) (Measurement Group).
# Similarly to the measurement group, as a control group, the measurement of luciferase activity was performed using pM (a vector containing residues 1-147 of GAL4 binding domain and not containing residues 204-505 of PPARγ ligand-binding domain in pM-hPPARγ) instead of the pM-hPPARγ. For each sample, the ratio between average luminescence intensities of the measurement group and the control group (n=4) (measurement group/control group) was calculated, and the luciferase activity relative to the non-treatment control was determined as the PPARγ ligand-binding activity of the sample.
# [3] = system: spontaneously diabetic mice (KK-A^y); assay: adiponectin secretion amount in serum of spontaneously diabetic mice (KK-Ay), ELISA; assay type: in vivo
# Text: The present example verified the diabetes relieving-effect of nobiletin through an experiment using spontaneously diabetic mice (KK-A^y).
# First, twelve spontaneously diabetic mice (6-week old, female) were fed preliminarily with normal diet for one week. Next, the mice were divided into two groups, namely, a control group and a NOB group (n=6) such that the average weights of these two groups were the same. Then, the mice of the control group were fed with high-fat diet only, whereas the mice of the NOB group were fed with high-fat diet containing 0.02% nobiletin. 27 days or 28 days after the initiation of feeding, serum was collected from these mice. […]
# Only the strips of the antibody plates necessary for the analysis were taken out. […] Thereafter, 100 μl of the standard solutions with respective concentrations and 100 μl of the diluted specimen solutions were added to the individual wells and measured in duplicate. Note here that the standard solutions always were measured for each measurement and each plate. […] After 100 μl of the substrate solution was added to each well of the antibody plate and allowed to stand still for reaction for 15 minutes at room temperature, 100 μl of the reaction stop solution was added to each well of the antibody plate, and then the absorbance at 450 nm in each well was measured with a plate reader. […]
# aP2 mRNA in 3T3-L1 = assay: aP2 mRNA expression in differentiating 3T3-L1 preadipocytes (Light Cycler, ratio to 36B4); assay type: cell-based; settings: 3T3-L1, 7 days after differentiation induction, non-treatment control = 100, average ± standard error
# Protocol: as §1, §2, §3
# 2. Differentiation Promotion Medium (5 μg/ml Insulin/10% FBS/DMEM) […]
# Next, cultured preadipocytes 3T3-L1 were thawed, inoculated in a 100 mm dish and cultured until the 3T3-L1 cells reached about 80% confluence. […] 7 days after the initiation of the differentiation induction, mRNA was extracted using a Sepasol-RNA I Super (trade name; available from Nacalai Tesque, Inc.), and the mRNA expression amounts of 36B4, aP2 and adiponectin, which were indicators of an early period of adipocyte differentiation, were measured using a Light Cycler™.
# as §4, §5
compound,measurement,setting,value
COc1ccc(-c2cc(=O)c3c(OC)c(OC)c(OC)c(OC)c3o2)cc1OC [nobiletin],Adiponectin mRNA expression amount (ratio to 36B4),[1]; 5 μM,265.1 ± 60.4
same,Adiponectin mRNA expression amount (ratio to 36B4),[1]; 10 μM,352.3 ± 28.5
same,Adiponectin mRNA expression amount (ratio to 36B4),[1]; 1 μm,164.9 ± 18.7
same,"secretion of adiponectin in adipocytes, result in words",[1]; 3T3-L1 cultured with nobiletin versus non-treated control medium,enhance the secretion of adiponectin in the adipocytes significantly
same,PPARγ ligand activity,[2]; 0.1 μM,96.5 ± 10.8
same,PPARγ ligand activity,[2]; 1.0 μM,156.8 ± 11.3
same,PPARγ ligand activity,[2]; 10 μM,200.5 ± 55.1
same,PPARγ ligand activity,[2]; 50 μM,246 ± 41.7
same,"PPARγ activity, result in words","[2]; 0.1-50 μM, versus non-treatment control",increased significantly in keeping with the concentration of nobiletin
same,Adiponectin secretion amount,"[3]; KK-Ay mice, high-fat diet containing 0.02% nobiletin, serum 27 or 28 days after initiation of feeding, average ± standard error, n=6, control group 4.78 ± 0.096",7.18 ± 0.50
same,"adiponectin secretion amount, result in words",[3]; diabetic mice of NOB group versus control group,increase the adiponectin secretion amount in the adipocytes significantly
same,aP2 mRNA expression amount (ratio to 36B4),aP2 mRNA in 3T3-L1; 5 μM,193.7 ± 41.4
same,aP2 mRNA expression amount (ratio to 36B4),aP2 mRNA in 3T3-L1; 10 μM,273.1 ± 13.8
same,aP2 mRNA expression amount (ratio to 36B4),aP2 mRNA in 3T3-L1; 1 μm,155.8 ± 21.7

# Reference: US20070213282A1, “Peroxisome proliferator-activated receptor (PPAR) activator, and drugs, supplements, functional foods and food additives using the same” (ARKRAY, Inc., priority 2004, published 2007)
